Legend:
human GST-AMPK α1β2γ1 [1] = molecular target: T1, human GST-AMPK α1β2γ1 (Homo sapiens, UniProt O43741+Q13131); test: Radiolabel SAMS kinase assay, GST-AMPK from HEK293T/17 cells immobilised on glutathione-Sepharose; assay type: biochemical
T1 construct: triply transfected with full-length AMPK α1 or α2 (NH2-terminal GST fusion, pDEST27 vector); full-length AMPK α1 or α2 (NH2-terminal GST fusion, pDEST27 vector), β1 or β2 (COOH-terminal FLAG fusion, pcDNA3.1 vector); FLAG (C); made in house; host or cells: HEK293T/17 cells, transient triple transfection
T1 sequence (Q13131 whole entry, the tested form may be a part): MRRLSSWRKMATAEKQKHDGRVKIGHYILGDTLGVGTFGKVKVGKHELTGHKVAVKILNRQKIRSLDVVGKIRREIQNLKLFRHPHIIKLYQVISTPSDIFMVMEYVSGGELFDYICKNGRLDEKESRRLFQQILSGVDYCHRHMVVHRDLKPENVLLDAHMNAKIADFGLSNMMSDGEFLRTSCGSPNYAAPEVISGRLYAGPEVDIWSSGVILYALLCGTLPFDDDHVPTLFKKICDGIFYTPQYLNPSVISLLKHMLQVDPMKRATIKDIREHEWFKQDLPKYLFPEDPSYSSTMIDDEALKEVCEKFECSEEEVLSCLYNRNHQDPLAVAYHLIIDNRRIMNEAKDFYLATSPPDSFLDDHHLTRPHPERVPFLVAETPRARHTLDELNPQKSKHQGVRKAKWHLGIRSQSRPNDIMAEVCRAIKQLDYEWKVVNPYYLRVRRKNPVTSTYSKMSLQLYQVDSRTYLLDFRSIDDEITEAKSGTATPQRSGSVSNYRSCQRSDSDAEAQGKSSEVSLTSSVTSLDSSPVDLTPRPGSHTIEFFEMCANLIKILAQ
T1 sequence (O43741 whole entry, the tested form may be a part): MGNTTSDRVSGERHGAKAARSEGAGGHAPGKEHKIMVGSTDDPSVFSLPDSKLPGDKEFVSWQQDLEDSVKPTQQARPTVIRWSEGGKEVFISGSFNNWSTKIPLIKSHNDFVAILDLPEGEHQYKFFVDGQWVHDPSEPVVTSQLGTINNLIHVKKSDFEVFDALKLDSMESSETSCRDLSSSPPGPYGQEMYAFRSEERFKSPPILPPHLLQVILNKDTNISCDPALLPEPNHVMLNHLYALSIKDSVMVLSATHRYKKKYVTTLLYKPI
T1 sequence (P54619 whole entry partner, the tested form may be a part): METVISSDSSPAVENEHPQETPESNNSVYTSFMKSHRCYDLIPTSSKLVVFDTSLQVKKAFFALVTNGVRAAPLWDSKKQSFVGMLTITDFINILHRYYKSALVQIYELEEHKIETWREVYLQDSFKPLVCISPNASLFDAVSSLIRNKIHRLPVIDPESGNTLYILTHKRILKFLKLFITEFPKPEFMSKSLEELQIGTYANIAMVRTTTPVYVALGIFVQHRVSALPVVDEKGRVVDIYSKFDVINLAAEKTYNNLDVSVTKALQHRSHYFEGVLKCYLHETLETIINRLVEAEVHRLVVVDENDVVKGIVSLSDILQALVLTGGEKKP

α2β2γ1 AMPK = test system: α2β2γ1 AMPK; design: method as in earlier work; conditions: reported for example I-3-54; cited from earlier work
human GST-AMPK α2β1γ1 [2] = molecular target: T2, human GST-AMPK α2β1γ1 (Homo sapiens, UniProt P54646+Q9Y478); test: Radiolabel SAMS kinase assay, GST-AMPK from HEK293T/17 cells immobilised on glutathione-Sepharose; assay type: biochemical
T2 construct: triply transfected with full-length AMPK α1 or α2 (NH2-terminal GST fusion, pDEST27 vector); full-length AMPK α1 or α2 (NH2-terminal GST fusion, pDEST27 vector), β1 or β2 (COOH-terminal FLAG fusion, pcDNA3.1 vector); FLAG (C); made in house; host or cells: HEK293T/17 cells, transient triple transfection
T2 sequence (P54646 whole entry, the tested form may be a part): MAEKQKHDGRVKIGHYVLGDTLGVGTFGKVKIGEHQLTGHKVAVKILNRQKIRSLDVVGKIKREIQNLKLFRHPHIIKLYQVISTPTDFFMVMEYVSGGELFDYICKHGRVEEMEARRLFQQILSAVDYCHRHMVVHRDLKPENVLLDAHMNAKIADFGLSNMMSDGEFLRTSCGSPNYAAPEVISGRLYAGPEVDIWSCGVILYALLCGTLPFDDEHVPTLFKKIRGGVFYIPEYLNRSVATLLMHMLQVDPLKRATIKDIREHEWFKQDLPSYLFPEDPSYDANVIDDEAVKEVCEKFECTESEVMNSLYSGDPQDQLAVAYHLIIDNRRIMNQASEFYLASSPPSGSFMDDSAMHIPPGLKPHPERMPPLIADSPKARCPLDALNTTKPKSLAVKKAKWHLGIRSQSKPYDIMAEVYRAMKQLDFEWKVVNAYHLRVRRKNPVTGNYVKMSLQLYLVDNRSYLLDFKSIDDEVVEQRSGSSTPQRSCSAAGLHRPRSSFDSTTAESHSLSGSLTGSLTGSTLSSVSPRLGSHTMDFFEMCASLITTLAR
T2 sequence (Q9Y478 whole entry, the tested form may be a part): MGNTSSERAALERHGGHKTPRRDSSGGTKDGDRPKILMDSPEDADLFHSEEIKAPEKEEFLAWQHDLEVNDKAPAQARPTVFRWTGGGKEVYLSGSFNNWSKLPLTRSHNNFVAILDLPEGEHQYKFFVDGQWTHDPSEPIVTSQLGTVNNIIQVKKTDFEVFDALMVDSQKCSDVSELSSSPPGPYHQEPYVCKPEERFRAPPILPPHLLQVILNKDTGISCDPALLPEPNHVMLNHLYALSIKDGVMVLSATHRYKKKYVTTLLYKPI
T2 sequence (P54619 whole entry partner, the tested form may be a part): as the sequence (P54619 whole entry partner, the tested form may be a part) above

human GST-AMPK α1β1γ1 = molecular target: T3, human GST-AMPK α1β1γ1 (Homo sapiens, UniProt Q13131+Q9Y478); test: as above; assay type: biochemical; conditions: for Max. fold activation: immobilised α1β1γ1; for EC50: immobilised α1β1γ1, 0–30 µM activator; for fold AMPK activation relative to vehicle: 1 µM compound
T3 construct: triply transfected with full-length AMPK α1 or α2 (NH2-terminal GST fusion, pDEST27 vector); full-length AMPK α1 or α2 (NH2-terminal GST fusion, pDEST27 vector), β1 or β2 (COOH-terminal FLAG fusion, pcDNA3.1 vector); FLAG (C); made in house; host or cells: HEK293T/17 cells, transient triple transfection
T3 sequence (Q13131 whole entry, the tested form may be a part): as the sequence (Q13131 whole entry, the tested form may be a part) above
T3 sequence (Q9Y478 whole entry, the tested form may be a part): as the sequence (Q9Y478 whole entry, the tested form may be a part) above
T3 sequence (P54619 whole entry partner, the tested form may be a part): as the sequence (P54619 whole entry partner, the tested form may be a part) above
Description: (§1) We generated a series of compounds to investigate whether modification of the SC4 2-hydroxybiphenyl LHS fragment affects isoform selectivity, some of which (MSG008-MSG011) are presented in Table 1. We also synthesised compound MSG012 (example I-3-54 [32]), which was reported to activate α2β2γ1 with ∼100-fold greater potency compared with α1β1γ1. MSG012 differs from SC4 by substitution of the 2-hydroxyphenyl LHS fragment with 3-cyclohexen-4-yl-1-carboxylic acid, and 2-methylbenzoic acid RHS fragment with 1-hydroxy-N,N-dimethylcyclohexan-4-yl-1-carboxamide. Our initial screen involved measuring the activity of recombinant human GST-AMPK complexes expressed in HEK293T/17 cells and immobilised on glutathione-Sepharose (Supplementary Figure S1). Enzyme activity was measured by radiolabelling the synthetic SAMS peptide substrate in the absence or presence of 1 µM compound. Consistent with our previous characterisation, SC4 activated α1β1γ1, α2β1γ1 and α2β2γ1 >2.3-fold, and weakly activated α1β2γ1 1.3-fold (Figure 1A). […] The γ isoform had little influence on AMPK activation by MSG011 as most γ2 and γ3 complexes were activated >2.2-fold at 1 µM, with α1β2γ2 being the only exception (1.6-fold activation). […] Accordingly, MSG010, MSG011 and MSG012 can be classified as pan AMPK activators.
(§2) Adherent HEK293T/17 cells at ∼50% confluency were triply transfected with full-length AMPK α1 or α2 (NH2-terminal GST fusion, pDEST27 vector), β1 or β2 (COOH-terminal FLAG fusion, pcDNA3.1 vector), and γ1, γ2 or γ3 (NH2-terminal HA fusion, pMT2 vector) in the presence of FuGENE HD transfection reagent (Promega) as per the manufacturers protocol. Cells were harvested 48 hours post-transfection by first gently washing in ice cold phosphate buffered saline (PBS; Sigma–Aldrich), then scraping in ice cold lysis buffer (50 mM TRIS pH 7.5, 150 mM NaCl, 10% (v/v) glycerol, 50 mM NaF, 5 mM sodium pyrophosphate, 1% (v/v) Triton X-100, cOmplete protease inhibitor cocktail). Lysates were clarified by centrifugation (16 000g, 3 min, 4°C), flash frozen in liquid N2 and stored at −80°C until analysis. For radioactive kinase assays, AMPK was immobilised on glutathione Sepharose 4B resin (GE Healthcare) by incubation with lysates for 1.5 h at 4°C. Following centrifugation (1000g, 3 min, 4°C), the resin was washed twice in purification buffer (50 mM HEPES pH 7.4, 150 mM NaCl, 10% (v/v) glycerol, 0.02% (v/v) Tween-20), once in 50 mM HEPES pH 7.4 with 0.02% (v/v) Tween-20, then resuspended to a 50% slurry with 50 mM HEPES pH 7.4 and 10 µl added to the activity assays. For in solution kinase assays, α1β1γ1 AMPK was eluted from glutathione-Sepharose by incubating with purification buffer supplemented with 40 mM reduced glutathione (Sigma–Aldrich).
(§3) AMPK activity was determined by phosphorylation of the SAMS peptide (Purar Chemicals, sequence: NH2-HMRSAMSGLHLVKRR-COOH) in a 25 µl reaction volume containing 100 µM SAMS peptide, 5 mM MgCl2, 200 µM ATP, [γ-^32P]-ATP (PerkinElmer) and assay buffer (50 mM HEPES pH 7.4, 1 mM DTT and 0.02% (v/v) Tween-20) and purified AMPK. Phosphotransferase activity was conducted at 30°C for 10 min and reactions were quenched by spotting 15 µl onto phosphocellulose ion-exchange chromatography paper (made in-house), followed by repeated washes in 1% H3PO4 (Merck Millipore). Ultima Gold liquid scintillation fluid (5 ml; PerkinElmer) was added to vials containing dried phosphocellulose papers, and the level of ^32P-transfer to the SAMS peptide was determined using a Tri-Carb 2900TR liquid scintillation counter (PerkinElmer).

human GST-AMPK α2β2γ1 [3] = molecular target: T4, human GST-AMPK α2β2γ1 (Homo sapiens, UniProt O43741+P54646); test: as above; assay type: biochemical
T4 construct: triply transfected with full-length AMPK α1 or α2 (NH2-terminal GST fusion, pDEST27 vector); full-length AMPK α1 or α2 (NH2-terminal GST fusion, pDEST27 vector), β1 or β2 (COOH-terminal FLAG fusion, pcDNA3.1 vector); FLAG (C); made in house; host or cells: HEK293T/17 cells, transient triple transfection
T4 sequence (P54646 whole entry, the tested form may be a part): as the sequence (P54646 whole entry, the tested form may be a part) above
T4 sequence (O43741 whole entry, the tested form may be a part): as the sequence (O43741 whole entry, the tested form may be a part) above
T4 sequence (P54619 whole entry partner, the tested form may be a part): as the sequence (P54619 whole entry partner, the tested form may be a part) above

γ1AMPK complexes = test: Radiolabel kinase assay, immobilised GST-tagged γ1AMPK (stated across γ1 complexes); assay type: biochemical, human
Description: We directly compared in vitro potencies of pan activators by performing radiolabel kinase assays with γ1AMPK complexes. Initially, we used GST-tagged γ1AMPK expressed in HEK293T/17 cells and immobilised on glutathione-Sepharose (Figure 2 and Table 2). […] These assays used AMPK purified from Sf9 insect cells or E. coli that was pre-treated with CaMKK2. […] However, relative to immobilised GST-α2β1γ1 from HEK293T/17 cells, His-tagged and myristoylated α2β1γ1 AMPK (expressed in E. coli, CaMKK2-treated and assayed in solution) was at least 10-fold more sensitive to activation by both MK-8722 and MSG011 (Supplementary Figure S3B), indicating the GST-affinity tag or CaMKK2 treatment may exert some influence on sensitivity to these activators.
as §2
as §3, with “Phosphotransferase activity was conducted at 30°C for 10 min and reactions were quenched by spotting 15 µl onto phosphocellulose ion-exchange chromatography paper (made in-house), followed by repeated washes in 1% H3PO4 (Merck Millipore).” left out

human GST-AMPK α2β2γ1 [4] = molecular target: T4, human GST-AMPK α2β2γ1; test: Radiolabel SAMS kinase assay, GST-AMPK from HEK293T/17 cells immobilised on glutathione-Sepharose; assay type: biochemical; conditions: 1 µM compound
Description: as §1, §2, §3

human GST-AMPK α2β1γ1 [5] = molecular target: T2, human GST-AMPK α2β1γ1; test: as above; assay type: biochemical; conditions: 1 µM compound
Description: as §1, §2, §3

human GST-AMPK α1β2γ1 [6] = molecular target: T1, human GST-AMPK α1β2γ1; test: as above; assay type: biochemical; conditions: 1 µM compound
Description: as §1, §2, §3

## CN(C)C(=O)C1(O)CCC(Oc2nc3nc(-c4ccc(C5=CCC(C(=O)O)CC5)cc4)c(Cl)cc3[nH]2)CC1 (stereo not drawn) [MSG012, 4′-(6-Chloro-2-(((1s,4s)-4-(dimethylcarbamoyl)-4-hydroxycyclohexyl)oxy)-1H-imidazo[4,5-b]pyridin-5-yl)-2,3,4,5-tetrahydro-[1,1′-biphenyl]-4-carboxylic acid]
Human GST-AMPK α1β2γ1 [1]; immobilised α1β2γ1
  Max. fold activation: 1.9 fold
Human GST-AMPK α1β2γ1 [1]; immobilised α1β2γ1, 0–30 µM activator
  EC50: 232 nM
α2β2γ1 AMPK
  greater potency for α2β2γ1 compared with α1β1γ1: ~100 fold
Human GST-AMPK α2β1γ1 [2]; immobilised α2β1γ1
  Max. fold activation: 6.1 fold
Human GST-AMPK α2β1γ1 [2]; immobilised α2β1γ1, 0–30 µM activator
  EC50: 332 nM
Human GST-AMPK α1β1γ1
  Max. fold activation: 1.9 fold
  EC50: 103 nM
Human GST-AMPK α2β2γ1 [3]; immobilised α2β2γ1
  Max. fold activation: 2.9 fold
Human GST-AMPK α2β2γ1 [3]; immobilised α2β2γ1, 0–30 µM activator
  EC50: 328 nM

## OCC1(c2ccc(-c3cc4nc(O[C@@H]5CO[C@H]6[C@@H]5OC[C@H]6O)[nH]c4cc3Cl)cc2)CC1 [PF-739, reference compound]
Human GST-AMPK α1β1γ1
  Max. fold activation: 1.7 fold
  EC50: 2010 nM
γ1AMPK complexes; compared with refs 17, 18
  EC50 fold higher than previously determined by high-throughput fluorescence-based assays in solution: 100–1000 fold
γ1AMPK complexes; immobilised GST-γ1AMPK, read-out: EC50 values for γ1AMPK activation
  EC50: 2000 nM

## Cc1ccc(Oc2nc3nc(C#Cc4ccccc4O)c(Cl)cc3[nH]2)cc1C(=O)O [MSG009, 5-((6-Chloro-5-((2-hydroxyphenyl)ethynyl)-1H-imidazo[4,5-b]pyridin-2-yl)oxy)-2-methylbenzoic acid]
Human GST-AMPK α2β2γ1 [4]
  fold AMPK activation relative to vehicle: reduced fold activation relative to SC4
Human GST-AMPK α1β1γ1
  fold AMPK activation relative to vehicle: reduced fold activation relative to SC4
Human GST-AMPK α2β1γ1 [5]
  fold AMPK activation relative to vehicle: reduced fold activation relative to SC4
Human GST-AMPK α1β2γ1 [6]
  fold AMPK activation relative to vehicle: 1.5 fold

## Cc1ccc(Oc2nc3nc(-c4ccc(C5=CCC(C(=O)O)CC5)cc4)c(Cl)cc3[nH]2)cc1C(=O)O (stereo not drawn) [MSG010, 4′-(2-(3-carboxy-4-methylphenoxy)-6-chloro-1H-imidazo[4,5-b]pyridin-5-yl)-2,3,4,5-tetrahydro-[1,1′-biphenyl]-4-carboxylic acid]
Human GST-AMPK α2β2γ1 [4]
  fold AMPK activation relative to vehicle: > 2.2 fold
Human GST-AMPK α1β1γ1
  fold AMPK activation relative to vehicle: > 2.2 fold
Human GST-AMPK α2β1γ1 [5]
  fold AMPK activation relative to vehicle: > 2.2 fold
Human GST-AMPK α1β2γ1 [6]
  fold AMPK activation relative to vehicle: > 2.2 fold

Reference: article PMC9317966, “Structure-function analysis of the AMPK activator SC4 and identification of a potent pan AMPK activator” (Biochemical Journal, 2022)
